Data reported in patent publication US20170121322A1, “BET-PROTEIN INHIBITING 3,4-DIHYDROPYRIDO[2,3-B]PYRAZINONES WITH META-SUBSTITUTED AROMATIC AMINO- OR ETHER GROUPS” (Bayer Pharma Aktiengesellschaft, priority 2014, published 2017).
Blank lines part the entries; values can stand above or below the molecule they belong to.

What was measured:
MOLM-13 cells = test: Cell proliferation assay MOLM-13, method 2 (CellTiterGlo); assay type: cell-based; conditions: Homo sapiens, MOLM-13, 72 h; acute myeloid leukaemia cells, 500 cells/well, 1536-well, 3-day incubation, CellTiterGlo ATP readout
Description: Alternatively, the MOLM-13 cells (DSMZ, ACC 554) were seeded at a concentration of 500 cells/well in 5 μl of growth medium (RPMI1640, 10% FCS) on 1536-well microtitre plates (method 2).
In method 2, after 3-day incubation with the inhibitor, the ATP concentration was determined as readout for the cell number using the CellTiterGlo kit (Promega). The measurement was carried out using a luminometer.
The substances were tested in the cell lines in Table 2, which represent the indications specified by way of example: […]

[1] = target: T1, BRD4 bromo domain 2 [BRD4(2)] (Homo sapiens, UniProt O60885); test: BRD4(2)/acetylated peptide H4 TR-FRET binding assay; conditions: His6-BRD4(2) (aa 357-445) vs acetylated histone H4 peptide
T1 construct: N-terminally His6-tagged BRD4(2) (amino acids 357-445); made in house; host or cells: E. coli
Excerpt: To assess the BRD4(2) binding strength of the substances described in this application, the ability thereof to inhibit the interaction between BRD4(2) and acetylated histone H4 in a dose-dependent manner was quantified.
(§1) For this purpose, a time-resolved fluorescence resonance energy transfer (TR-FRET) assay was used, which measures the binding between N-terminally His6-tagged BRD4(2) (amino acids 357-445) and a synthetic acetylated histone H4 (Ac-H4) peptide with sequence SGRGK(Ac)GGK(Ac)GLGK(Ac)GGAK(Ac)RHRKVLRDNGSGSK-biotin. The recombinant BRD4(2) protein produced in-house according to Filippakopoulos et al., Cell, 2012, 149:214-231 was expressed in E. coli and purified by means of (Ni-NTA) affinity and (Sephadex G-75) size exclusion chromatography. The Ac-H4 peptide can be purchased, for example, from Biosyntan (Berlin, Germany).
(§2) In the assay, typically 11 different concentrations of each substance (0.1 nM, 0.33 nM, 1.1 nM, 3.8 nM, 13 nM, 44 nM, 0.15 μM, 0.51 μM, 1.7 μM, 5.9 μM and 20 μM) were analysed as duplicates on the same microtitre plate. For this purpose, 100-fold concentrated solutions in DMSO were prepared by serial dilutions (1:3.4) of a 2 mM stock solution into a clear, 384-well microtitre plate (Greiner Bio-One, Frickenhausen, Germany). From this, 50 nl were transferred into a black test plate (Greiner Bio-One, Frickenhausen, Germany). The test was started by the addition of 2 μl of a 2.5-fold concentrated BRD4(2) solution (final concentration typically 100 nM in the 5 μl of reaction volume) in aqueous assay buffer [50 mM HEPES pH 7.5, 50 mM sodium chloride (NaCl); 50 mM potassium fluoride (KF); 0.25 mM CHAPS and 0.05% serum albumin (BSA)] to the substances in the test plate. This was followed by a 10-minute incubation step at 22° C. for the pre-equilibration of putative complexes between BRD4(2) and the substances.
(§3) The mixture was then incubated in the dark at 22° C. for one hour and then at 4° C. for at least 3 hours and for no longer than overnight. The formation of BRD4(2)/Ac-H4 complexes was determined by the measurement of the resonance energy transfer from the streptavidin-Eu chelate to the anti-6His-XL665 antibody present in the reaction. For this purpose, the fluorescence emission was measured at 620 nm and 665 nm after excitation at 330-350 nm in a TR-FRET measuring instrument, for example a Rubystar or Pherastar (both from BMG Lab Technologies, Offenburg, Germany) or a Viewlux (Perkin-Elmer). The ratio of the emissions at 665 nm and at 622 nm was taken as an indicator of the amount of BRD4(2)/Ac-H4 complexes formed.
(§4) The data (ratios) obtained were normalized, with 0% inhibition corresponding to the mean from the measurements for a set of controls (typically 32 data points) in which all the reagents were present. In these, in place of test substances, 50 nl of DMSO (100%) were used. Inhibition of 100% corresponded to the mean from the measurements for a set of controls (typically 32 data points) in which all the reagents except BRD4(2) were present. The IC50 was determined by regression analysis based on a 4-parameter equation (minimum, maximum, IC50, Hill; Y=Max+(Min−Max)/(1+(X/IC50)Hill)).

[2] = target: T2, BRD4 bromo domain 1 [BRD4(1)] (Homo sapiens, UniProt O60885); test: BRD4(1)/acetylated peptide H4 TR-FRET binding assay; conditions: His6-BRD4(1) (aa 67-152) vs acetylated histone H4 peptide
T2 construct: N-terminally His6-tagged BRD4(1) (amino acids 67-152); made in house; host or cells: E. coli
Excerpt: To assess the BRD4(1) binding strength of the substances described in this application, the ability thereof to inhibit the interaction between BRD4(1) and acetylated histone H4 in a dose-dependent manner was quantified.
as §1, with “BRD4(1)” for “BRD4(2)”, “67-152)” for “357-445)”, “GRGK(Ac)GGK(Ac)GLGK(Ac)GGAK(Ac)RHGSGSK-biotin.” for “SGRGK(Ac)GGK(Ac)GLGK(Ac)GGAK(Ac)RHRKVLRDNGSGSK-biotin.”
as §2, with “concentrated BRD4(1)” for “concentrated BRD4(2)”, “typically 10” for “typically 100”, “chloride (NaCl),” for “chloride (NaCl); 50 mM potassium fluoride (KF);”, “between BRD4(1)” for “between BRD4(2)”, “substances. Subsequently, 3 μl of a solution of 1.67 times the concentration (in assay buffer) consisting of Ac-H4 peptide (83.5 nM) and TR-FRET detection reagents [16.7 nM anti-6His-XL665 and 3.34 nM streptavidin cryptate (both from Cisbio Bioassays, Codolet, France), and 668 mM potassium fluoride (KF)] were added.” for “substances.”
as §3, with “BRD4(1)/Ac-H4” for “BRD4(2)/Ac-H4”, “cryptate” for “chelate”
as §4, with “BRD4(1)” for “BRD4(2)”, “Y=Max+(Min−Max)/(1+(X/IC50)Hill).” for “Y=Max+(Min−Max)/(1+(X/IC50)Hill)).”

Compound: C[C@@H]1C(=O)N(C)c2ccc(Nc3cccc(N4CCN(C)CC4)c3)nc2N1C1CCOCC1 [Example 41, (3R)-1,3-Dimethyl-6-{[3-(4-methylpiperazin-1-yl)phenyl]amino}-4-(tetrahydro-2H-pyran-4-yl)-3,4-dihydropyrido[2,3-b]pyrazin-2(1H)-one]
IC50 (MOLM-13 cells): 0.708 µM
IC50 [1]: 0.63 µM
IC50 [2]: 0.133 µM

Compound: COc1ccc(S(=O)(=O)C(C)C)cc1Nc1ccc2c(n1)N(C1CCN(C(=O)OC(C)(C)C)CC1)[C@H](C)C(=O)N2C [Example 24, tert-Butyl 4-[(3R)-6-{[5-(isopropylsulphonyl)-2-methoxyphenyl]amino}-1,3-dimethyl-2-oxo-2,3-dihydropyrido[2,3-b]pyrazin-4(1H)-yl]piperidine-1-carboxylate]
IC50 (MOLM-13 cells): 0.147 µM
IC50 [1]: 0.078 µM
IC50 [2]: 0.086 µM

Compound: COc1ccc(S(C)(=O)=O)cc1Nc1ccc2c(n1)N(C1CCN(C(=O)OC(C)(C)C)CC1)[C@H](C)C(=O)N2C [Example 25, tert-Butyl 4-[(3R)-6-{[2-methoxy-5-(methylsulphonyl)phenyl]amino}-1,3-dimethyl-2-oxo-2,3-dihydropyrido[2,3-b]pyrazin-4(1H)-yl]piperidine-1-carboxylate]
IC50 (MOLM-13 cells): 0.576 µM
IC50 [1]: 0.135 µM
IC50 [2]: 0.156 µM

Compound: C[C@@H]1C(=O)N(C)c2ccc(Nc3cccc(S(C)(=N)=O)c3)nc2N1C1CCOCC1 (stereo partly drawn) [Example 44, (3R)-1,3-Dimethyl-6-{[3-(S-methylsulphonimidoyl)phenyl]amino}-4-(tetrahydro-2H-pyran-4-yl)-3,4-dihydropyrido[2,3-b]pyrazin-2(1H)-one]
IC50 (MOLM-13 cells): > 10 µM
IC50 [1]: 7.34 µM
IC50 [2]: 3.64 µM

Compound: CC(C)S(=O)(=O)c1cccc(Nc2ccc3c(n2)N(C2CCN(CCC(F)(F)F)CC2)[C@H](C)C(=O)N3C)c1 [Example 30, (3R)-6-{[3-(Isopropylsulphonyl)phenyl]amino}-1,3-dimethyl-4-[1-(3,3,3-trifluoropropyl)piperidin-4-yl]-3,4-dihydropyrido[2,3-b]pyrazin-2(1H)-one]
IC50 (MOLM-13 cells): 0.073 µM
IC50 [1]: 0.114 µM
IC50 [2]: 0.02 µM

Compound: C[C@@H]1C(=O)N(C)c2ccc(Nc3cccc(-c4ccc(C#N)cc4)c3)nc2N1C1CCOCC1 [Example 18, 3′-{[(3R)-1,3-Dimethyl-2-oxo-4-(tetrahydro-2H-pyran-4-yl)-1,2,3,4-tetrahydropyrido[2,3-b]pyrazin-6-yl]amino}biphenyl-4-carbonitrile]
IC50 (MOLM-13 cells): 1.65 µM
IC50 [1]: 0.294 µM
IC50 [2]: 1.1 µM

The remaining lines, values ahead:

IC50 (MOLM-13 cells): 0.026 µM
IC50 [1]: 0.051 µM
IC50 [2]: 0.015 µM
Compound: CCS(=O)(=O)c1ccc(Oc2ccccc2)c(Nc2ccc3c(n2)N(C2CCN(C)CC2)[C@H](C)C(=O)N3C)c1 [Example 33, (3R)-6-{[5-(Ethylsulphonyl)-2-phenoxyphenyl]amino}-1,3-dimethyl-4-(1-methylpiperidin-4-yl)-3,4-dihydropyrido[2,3-b]pyrazin-2(1H)-one]

IC50 (MOLM-13 cells): 0.16 µM
IC50 [1]: 0.049 µM
IC50 [2]: 0.034 µM
Compound: CCS(=O)(=O)c1ccc(Oc2ccccc2)c(Nc2ccc3c(n2)N(C2CCOCC2)[C@H](C)C(=O)N3C)c1 [Example 36, (3R)-6-{[5-(Ethylsulphonyl)-2-phenoxyphenyl]amino}-1,3-dimethyl-4-(tetrahydro-2H-pyran-4-yl)-3,4-dihydropyrido[2,3-b]pyrazin-2(1H)-one]

IC50 (MOLM-13 cells): 0.04 µM
IC50 [1]: 0.029 µM
IC50 [2]: 0.945 µM
Compound: CCS(=O)(=O)c1ccc(Oc2ccc(F)cc2)c(Nc2ccc3c(n2)N(C2CCN(C)CC2)[C@H](C)C(=O)N3C)c1 [Example 32, (3R)-6-{[5-(Ethylsulphonyl)-2-(4-fluorophenoxy)phenyl]amino}-1,3-dimethyl-4-(1-methylpiperidin-4-yl)-3,4-dihydropyrido[2,3-b]pyrazin-2(1H)-one]

IC50 (MOLM-13 cells): 0.051 µM
IC50 [1]: 0.064 µM
IC50 [2]: 0.027 µM
Compound: C=CCS(=O)(=O)c1ccc(OC)c(Nc2ccc3c(n2)N(C2CCN(C)CC2)[C@H](C)C(=O)N3C)c1 [Example 23, (3R)-6-{[5-(Allylsulphonyl)-2-methoxyphenyl]amino}-1,3-dimethyl-4-(1-methylpiperidin-4-yl)-3,4-dihydropyrido[2,3-b]pyrazin-2(1H)-one]

IC50 (MOLM-13 cells): 0.124 µM
IC50 [1]: 0.039 µM
IC50 [2]: 0.035 µM
Compound: CCS(=O)(=O)c1ccc(Oc2ccc(F)cc2)c(Nc2ccc3c(n2)N(C2CCOCC2)[C@H](C)C(=O)N3C)c1 [Example 37, (3R)-6-{[5-(Ethylsulphonyl)-2-(4-fluorophenoxy)phenyl]amino}-1,3-dimethyl-4-(tetrahydro-2H-pyran-4-yl)-3,4-dihydropyrido[2,3-b]pyrazin-2(1H)-one]
